Experimental data: PMC6915745, “TRIB3 supports breast cancer stemness by suppressing FOXO1 degradation and enhancing SOX2 transcription” (Nature Communications, 2019)

Key:
[1] = test system: TRIB3-silenced MCF7 cells; assay: Immunoblot of AKT1/FOXO1/SOX2, TRIB3-silenced MCF7 cells with AKT1 inhibitor MK2206; assay type: cell-based, human; conditions: TRIB3-silenced MCF7 cells, 24 h
Excerpt: Fig. 6 TRIB3 abrogates the AKT-FOXO1 interaction. a Supervised clustering of MCF7 cells transfected with CTRL-shRNA or TRIB3-shRNA using the log2-transformed values for genes in the FOXO1 upstream pathway, including AMPK, ERK, PI3K, p38, and JNK clustered genes expressed in all samples. Each column represents a separate case. Z-scores from IPA depicting the subnetwork gene expression differences between CTRL-shRNA and TRIB3-shRNA cases. The Z-score heat map depicts the five FOXO1 upstream subnetworks. Each row represents the data for the subnetwork indicated in the right margin. b, c TRIB3 inhibited the activity of AKT1 in BCCs. The indicated stable expression cell extracts were prepared and the levels of the indicated proteins were detected by immunoblotting. d, e The effects of the AKT1 agonist or antagonist for TRIB3-FOXO1-SOX2 axis in BCCs. The indicated cells were treated with the AKT1 agonist SC79 or the antagonist MK2206 for 24 h. […] HMLE cell extracts were IP with an anti-AKT1 Ab and blotted with an anti-TRIB3 or anti-FOXO1 Ab in the presence of the indicated concentration of the TRIB3-GST protein. Data are shown as the mean ± SEM; P > 0.05 was considered not significant (NS); *P < 0.05, **P < 0.01, and ***P < 0.001 compared with the vector or CTRL-shRNA group. Source data are provided as a Source Data file.
(§1) Cycloheximide (CHX; Sigma Aldrich, R750107) was used as a protein synthesis inhibitor to assess the stability of the existing proteins. To assess protein stability, cells were treated with 20 μM CHX and the proteasome inhibitor MG132 (Sigma Aldrich, R750107) at 10 μM or the autophagy inhibitor BAF (Sigma Aldrich, B1793) at 200 nM for the indicated times. Protein expression was assessed via immunoblot analysis with cell lysates (20–60 μg) prepared in RIPA lysis buffer containing protease inhibitors (Roche) using anti-SOX2 (3529), anti-NANOG (4903), anti-OCT4 (2750), anti-KLF4 (4038), anti-c-Myc (13987), anti-FOXO1 (2880), anti-p-FOXO1 (9461), anti-AKT (4685), anti-p-AKT (4060), anti-β-ACTIN (4970), anti-Ubiquitin (3936), or anti-LaminA/C (4777) antibodies from CST; anti-TRIB3 antibody (ab75846) from Abcam; and anti-Trib3 antibody (PA5-15480) from Thermo Fisher Scientific[59]. All antibodies were used at 1:1000 dilution, with the exception of anti-β-Actin antibodies, which were used at 1:2000 dilution. The protein concentrations were determined by BCA Protein Assay Kits (Pierce). Proteins were separated by SDS-polyacrylamide gel electrophoresis (PAGE) and transferred to polyvinylidene difluoride membrane.

[2] = test system: TRIB3-silenced MDA-MB-231 cells; assay: Immunoblot of AKT1/FOXO1/SOX2, TRIB3-silenced MDA-MB-231 cells with AKT1 inhibitor MK2206; assay type: cell-based; conditions: 24 hr
Method: as §1, with “Proteins were separated by SDS-polyacrylamide gel electrophoresis (PAGE) and transferred to polyvinylidene difluoride membrane.” left out
indicated proteins were detected by immunoblotting. […]
MK2206 for 24 hr. Cell extracts were prepared and the levels of the indicated proteins were detected […]
levels of the indicated proteins were detected by immunoblotting. […]
glucose (HG) for 24 hr was detected by Western blotting. […]

[3] = target: T1, TRIB3-GST protein (Homo sapiens, UniProt Q96RU7); assay: SPR binding kinetics of peptides to TRIB3 (BIAcore T200); conditions: in words
T1 construct: purchased Sino, China
T1 sequence (Q96RU7 1-358): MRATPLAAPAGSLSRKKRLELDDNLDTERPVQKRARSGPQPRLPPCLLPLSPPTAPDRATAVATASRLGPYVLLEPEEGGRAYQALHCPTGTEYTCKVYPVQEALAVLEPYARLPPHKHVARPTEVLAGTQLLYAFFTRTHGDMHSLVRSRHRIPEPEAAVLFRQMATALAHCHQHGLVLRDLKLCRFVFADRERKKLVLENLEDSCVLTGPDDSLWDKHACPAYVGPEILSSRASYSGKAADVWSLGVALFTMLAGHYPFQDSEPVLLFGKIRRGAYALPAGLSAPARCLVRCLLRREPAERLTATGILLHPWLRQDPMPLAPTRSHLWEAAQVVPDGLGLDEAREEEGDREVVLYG
Method: Peptide Ae, alanine mutants of Ae (M1-M13), Pep2–con and Pep2–Ae were synthesized by Guoping Pharmaceutical, Co. (China). The Surface plasmon resonance binding kinetics between TRIB3 and the indicated peptides were analyzed by using a BIAcore T200 system (GE Healthcare)[14]. Briefly, TRIB3-GST protein (Sino, China) was immobilized onto four individual flow cells in a CM5 sensor chip (GE Healthcare) through a standard coupling protocol. To measure the binding kinetics, the indicated peptide (2.5~0.009 μM in 2-fold serial dilutions) and a buffer blank for baseline subtraction were sequentially injected, with a regeneration step (glycine, pH 2.5) inserted between each cycle. The equilibrium dissociation constant (KD) was calculated according to BIA-evaluation software.

[4] = test system: FOXO1; conditions: HEPG2 cells, after insulin activation of PI3K-AKT; 12-hr under sera deprivation; ref Matsuzaki et al. (2003, PNAS); cited from earlier work
[5] = target: AKT1, endogenous in human cells (human (endogenous in HMLE, MCF7, …, UniProt P31749 1-480)); assay: cell-based or functional assay
Sequence of AKT1, endogenous in human cells (human (P31749 whole entry): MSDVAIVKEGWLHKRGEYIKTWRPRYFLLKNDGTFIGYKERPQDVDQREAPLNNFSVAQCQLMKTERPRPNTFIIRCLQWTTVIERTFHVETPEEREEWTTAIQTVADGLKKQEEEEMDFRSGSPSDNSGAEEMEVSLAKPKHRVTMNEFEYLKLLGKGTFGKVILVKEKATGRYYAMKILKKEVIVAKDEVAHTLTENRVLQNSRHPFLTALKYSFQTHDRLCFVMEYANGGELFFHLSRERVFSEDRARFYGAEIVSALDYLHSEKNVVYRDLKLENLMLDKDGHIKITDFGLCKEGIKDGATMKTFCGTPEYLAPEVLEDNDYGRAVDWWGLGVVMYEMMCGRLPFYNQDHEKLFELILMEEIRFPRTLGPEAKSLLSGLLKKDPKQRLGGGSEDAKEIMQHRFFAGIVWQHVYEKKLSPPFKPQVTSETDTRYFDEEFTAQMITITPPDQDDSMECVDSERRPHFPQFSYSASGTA

[6] = test system: AKT1-FOXO1 interaction; assay: Co-IP of AKT1-FOXO1 interaction in HMLE cell extracts with TRIB3-GST protein; assay type: binding, human; conditions: IP anti-AKT1
Excerpt: Fig. 6 TRIB3 abrogates the AKT-FOXO1 interaction. a Supervised clustering of MCF7 cells transfected with CTRL-shRNA or TRIB3-shRNA using the log2-transformed values for genes in the FOXO1 upstream pathway, including AMPK, ERK, PI3K, p38, and JNK clustered genes expressed in all samples. Each column represents a separate case. Z-scores from IPA depicting the subnetwork gene expression differences between CTRL-shRNA and TRIB3-shRNA cases. The Z-score heat map depicts the five FOXO1 upstream subnetworks. Each row represents the data for the subnetwork indicated in the right margin. b, c TRIB3 inhibited the activity of AKT1 in BCCs. The indicated stable expression cell extracts were prepared and the levels of the indicated proteins were detected by immunoblotting. d, e The effects of the AKT1 agonist or antagonist for TRIB3-FOXO1-SOX2 axis in BCCs. The indicated cells were treated with the AKT1 agonist SC79 or the antagonist MK2206 for 24 h. […]
Cell pellets were lysed with coimmunoprecipitation buffer (25 mM Tri-cl (pH 7.4), 150 mM NaCl, 0.5% NP-40, 2.5 mM MgCl, 0.5 mM EDTA, 5% Glycerol), incubated with IP antibodies overnight at 4 °C with shaking, and then incubated with Protein A/G Plus-Agarose (Santa Cruz Biotechnology) for 2 h at 4 °C[15]. Interaction complexes were separated from the beads by boiling for 10 min and then subjected to SDS-PAGE and detected with immunoblotting.

Molecule: NC1(c2ccc(-c3nc4ccn5c(=O)[nH]nc5c4cc3-c3ccccc3)cc2)CCC1 [MK2206, reference compound]
- FOXO1 and SOX2 expression [1]: rescued FOXO1 and SOX2 expression
- activity of AKT1 S473 and FOXO1 S256 [1]: suppressed the activity of AKT1^S473 and FOXO1^S256
- FOXO1 and SOX2 expression [2]: rescued FOXO1 and SOX2 expression
- activity of AKT1 S473 and FOXO1 S256 [2]: suppressed the activity of AKT1^S473 and FOXO1^S256

Molecule: AAHTAAENRV AAA [Pep2–con, reference compound]
- interaction with TRIB3 of control peptide ([3]; authors' reply to reviewers): no interaction with TRIB3

Molecule: Ae: α-helical peptide which mimics the AKT1 191–204 α-helical region (EVAHTLTENRVLQN; UniProt P31749 191-204, looked up, fragment)
- binding affinity with TRIB3, rank among α-helical peptides ([3]; SPR, series of α-helical peptides of AKT1 catalytic domain): displayed the best binding affinity with TRIB3 among all the α-helical peptides analyzed

Molecule: insulin: insulin activation of the PI3K-AKT signaling pathway
- FOXO1 half-life [4]: approximately 6 hr

B1: Tribbles homolog 3 (TRIB3), endogenous in human breast cancer cells (natural protein, UniProt Q96RU7 1-358, looked up)
chain: T1 sequence (Q96RU7 1-358)
- half-life of FOXO1 degradation in MCF7 cells treated with Pep2–Ae (Supplementary Fig. 10d) [5]: 36 min

B2: TRIB3-GST protein: TRIB3-GST protein (Sino, China) (protein)
chain: T1 sequence (Q96RU7 1-358)
modifications: left off: GST, end not stated, kept
- AKT1-FOXO1 interaction [6]: inhibited the AKT1-FOXO1 interaction by binding to AKT1
